A word on the IC50: it is the concentration that gives 50% inhibition.

One series concerns α-glucosidase. Briefly: α-glucosidase inhibitory activity, spectrophotometric p-nitrophenyl-α-D-glucopyranoside method. To be noted: for IC50: mean ± SEM of three parallel measurements, concentration range 50–100–200–400 μM, read-out: antidiabetic inhibition activity IC50 α-lucosidase. The series is classed as biochemical. On the procedure: Specifically, 50 μL of phosphate buffer (10 mM, pH 6.9), 25 μL of p-nitrophenyl-α-D-glucopyranoside in phosphate buffer (10 mM, pH 6.9), 10 μL of sample solution, and 25 μL of α-glucosidase (0.1 U/mL) in phosphate buffer (10 mM, pH 6.0) were combined in a 96-well microplate. After 20 min of incubation at 37 °C, 90 μL of Na2CO3 (100 mM) was added to each well to halt the enzymatic reaction. The absorbance was measured at 400 nm by using a 96-well microplate reader.
(§1) All biological activity data were taken in three parallel measurements for four different concentrations of each synthesis sample. The results of the biological activity analyses are presented as the IC50 values.

A short description of series [1]: Cytotoxic activity, MTT cell viability assay, BEAS-2B. The series is classed as cell-based. To be noted: human, BEAS-2B normal bronchial epithelial cells. On the procedure:
(§2) In this research, the nonsmall lung cancer (A549) and bronchial epithelial normal (BEAS-2B) cells were used for cytotoxicity experiments. All of the cells were cultured in Dulbecco’s Modified Eagle Medium (Gibco, USA) cell medium containing 10% fetal calf serum (FBS; Gibco, USA) and 1% penicillin/streptomycin (Gibco, USA) in an incubator at 37 °C and 5% CO2.[49],[50]
(§3) In a 96-well cell culture plate, cells were seeded at a density of 6 × 10^4 cells/mL and observed to be cultured for 24 h. The cells must have 70% confluence before chemical exposure. After 70% confluency incubation, the cells were treated with different concentrations of compounds for 24 h. All chemicals were dissolved in DMSO. […] The amount of DMSO contained in the chemical at the highest concentration was used as a negative control.
(§4) Cell viability was determined by 3-[4,5-dimethylthiazol-2-yl]-2,5-diphenyltetrazolium bromide (MTT) assay. This method is specifically used to evaluate live cells. The succinate dehydrogenase system of active mitochondria reduces the tetrazolium salt MTT to formazan.[51] For the MTT assay, MTT solution […] was added into the cells (200 μL/well) and incubated for 1 h at 37 °C. Absorbance was measured at 570 nm using an Epoch microplate spectrophotometer (BioTek Instruments, Winooska, VT).[52]
On the technique in general: Formazan colour is commonly taken as a measure of viable cells.

The test system of series [2] is nonsmall lung cancer (A549) cells. Briefly: Cytotoxic activity, MTT cell viability assay, A549. To be noted: Homo sapiens, A549, 24 h. The series is classed as cell-based. Here is the method: as §2, §3, §4
In series [3] the test system is bronchial epithelial normal (BEAS-2B) cells. Description: Cytotoxic activity, MTT cell viability assay, BEAS-2B. Format: cell-based. Conditions: at the determined IC50 values. Here is the method: as §2, §3, §4
In the next series the target is α-amylase. Briefly: α-amylase inhibitory activity, spectrophotometric starch/Lugol method. Format: biochemical. To be noted: mean ± SEM of three parallel measurements; concentration range 50–100–200–400 μM; read-out: antidiabetic inhibition activity IC50 α-amylase. Here is the method:
Briefly, 25 μL of the sample solution at various concentrations was mixed with 50 μL of an α-amylase solution (0.1 U/mL) in a phosphate buffer (20 mM, pH 6.9, prepared with 6 mM NaCl) in a 96-well microplate. This mixture was preincubated at 37 °C for 10 min. Following the preincubation, 50 μL of a starch solution (0.05%) was added, and the reaction mixture was incubated for another 10 min at 37 °C. The reaction was then terminated by adding 25 μL of HCl (0.1 M), followed by the addition of 100 μL of Lugol’s solution for monitoring.
as §1

The target of another series is alpha-amylase. Further details: method as in PMID 34064448, PMID 32525781, PMID 33272713, PMID 35832461, PMID 28495082. To be noted: Figure 1 design strategy; cited from earlier work.

Consider `O=C(/C=C/c1ccccc1)c1ccc(N2CCCC2)cc1` [Compound 1, (E)-3-Phenyl-1-(4-(pyrrolidin-1-yl)phenyl)prop-2-en-1-one], for which the “α-glucosidase inhibitory effect compared with acarbose” value in the series on α-glucosidase is on record as “better inhibitory effect”. Moreover, the figures for the 50% inhibitory concentration (IC50) (on α-glucosidase; in series [2]) were 50.2 ± 2.32 µM and above 100 µM, respectively. In series [1], this compound showed a concentration for half-maximal inhibition (IC50) at 24 h above 100 µM.

For the compound `O=C(/C=C/c1cccc(OC(F)(F)F)c1)c1ccc(N2CCCC2)cc1` [Compound 8, (E)-1-(4-(pyrrolidin-1-yl)phenyl)-3-(3-(trifluoromethoxy)phenyl)prop-2-en-1-one], the IC50 at α-glucosidase came to 147.5 ± 0.9 µM; in series [2], 60 µM. The “toxic effect on healthy BEAS-2B cells” value in series [3] is “no toxic effects”. For the same compound, the half-maximal inhibitory concentration (IC50) at 24 h in series [1] was above 100 µM.

Turning to `O=C(/C=C/c1cc(C(F)(F)F)cc(C(F)(F)F)c1)c1ccc(N2CCCC2)cc1` [Compound 10, (E)-3-(3,5-bis(trifluoromethyl)phenyl)-1-(4-(pyrrolidin-1-yl)phenyl)prop-2-en-1-one], the “α-glucosidase inhibitory effect compared with acarbose” value in the series on α-glucosidase is given as “better inhibitory effect”. Further, the IC50 at α-glucosidase was 44.2 ± 2.42 µM; on α-amylase it was 39.68 ± 0.27 µM; in series [2], above 100 µM. The 50% inhibitory concentration (IC50) at 24 h in series [1] was above 100 µM.

On to `O=C(/C=C/c1ccc(OC(F)(F)F)cc1)c1ccc(N2CCCC2)cc1` [Compound 9, (E)-1-(4-(pyrrolidin-1-yl)phenyl)-3-(4-(trifluoromethoxy)phenyl)prop-2-en-1-one], for which the “α-glucosidase inhibitory effect compared with acarbose” value in the series with α-glucosidase is “better inhibitory effect”. Further, the IC50 at α-glucosidase was 61.3 ± 2.48 µM; on α-amylase, 39.97 ± 0.26 µM; in series [2], above 100 µM. Also, the IC50 at 24 h in series [1] was above 100 µM.

With `O=C(/C=C/c1ccc(C(F)(F)F)cc1F)c1ccc(N2CCCC2)cc1` [Compound 12, (E)-3-(2-fluoro-4-(trifluoromethyl)phenyl)-1-(4-(pyrrolidin-1-yl)phenyl)prop-2-en-1-one], in the series with α-glucosidase, the “α-glucosidase inhibitory effect compared with acarbose” value is “better inhibitory effect”. The IC50 is 81.8 ± 0.85 µM on α-glucosidase, 80.11 ± 0.49 µM on α-amylase and above 100 µM in series [2]. The IC50 at 24 h in series [1] is above 100 µM.

Turning to `O=C(/C=C/c1cccc(F)c1)c1ccc(N2CCCC2)cc1` [Compound 3, (E)-3-(3-fluorophenyl)-1-(4-(pyrrolidin-1-yl)phenyl)prop-2-en-1-one], the “α-glucosidase inhibitory effect compared with acarbose” value in the series on α-glucosidase is reported as “better inhibitory effect”. In series [1], this compound returned an IC50 at 24 h above 100 µM. The IC50 in series [2] was above 100 µM.

Turning to `O=C(/C=C/c1ccc(C(F)(F)F)cc1)c1ccc(N2CCCC2)cc1` [Compound 7, (E)-1-(4-(pyrrolidin-1-yl)phenyl)-3-(4-(trifluoromethyl)phenyl)prop-2-en-1-one], the “α-glucosidase inhibitory effect compared with acarbose” value in the series on α-glucosidase is recorded as “better inhibitory effect”. For the same compound, the IC50 at α-glucosidase was 46.5 ± 2.16 µM; at α-amylase, 38.2 ± 0.83 µM; in series [2], above 100 µM. This compound also showed an IC50 at 24 h in series [1] above 100 µM.

As to `O=C(/C=C/c1ccc(F)c(C(F)(F)F)c1)c1ccc(N2CCCC2)cc1` [Compound 13, (E)-3-(4-fluoro-3-(trifluoromethyl)phenyl)-1-(4-(pyrrolidin-1-yl)phenyl)prop-2-en-1-one], the IC50 at α-glucosidase was 261.5 ± 1.69 µM; on α-amylase, 83.8 ± 0.01 µM; in series [2] it was above 100 µM. Besides, in series [1], the IC50 at 24 h is above 100 µM.

Take `O=C(/C=C/c1ccc(F)cc1)c1ccc(N2CCCC2)cc1` [Compound 4, (E)-3-(4-fluorophenyl)-1-(4-(pyrrolidin-1-yl)phenyl)prop-2-en-1-one]: the “α-glucosidase inhibitory effect compared with acarbose” value in the series on α-glucosidase is recorded as “better inhibitory effect”. For the same compound, the results for the IC50 (at α-glucosidase; at α-amylase; in series [2]) were 58.9 ± 3.26 µM, 30.63 ± 0.25 µM and above 100 µM, respectively. This compound registered an IC50 at 24 h in series [1] above 100 µM.

Consider `O=C(/C=C/c1cccc(C(F)(F)F)c1)c1ccc(N2CCCC2)cc1` [Compound 6, (E)-1-(4-(pyrrolidin-1-yl)phenyl)-3-(3-(trifluoromethyl)phenyl)prop-2-en-1-one], for which, in the series on α-glucosidase, the “α-glucosidase inhibitory effect compared with acarbose” value is listed as “better inhibitory effect”. Also, the IC50 was 54.1 ± 2.87 µM on α-glucosidase, 83.78 ± 0.38 µM on α-amylase and above 100 µM in series [2]. Moreover, the IC50 at 24 h in series [1] is above 100 µM.

`O=C(/C=C/c1ccccc1F)c1ccc(N2CCCC2)cc1` [Compound 2, (E)-3-(2-fluorophenyl)-1-(4-(pyrrolidin-1-yl)phenyl)prop-2-en-1-one]: the IC50 on α-glucosidase is 189 ± 1.94 µM; on α-amylase, 51.96 ± 0.12 µM; in series [2], above 100 µM. Moreover, the IC50 at 24 h in series [1] is above 100 µM.

Turning to `O=C(/C=C/c1cccc(C(F)(F)F)c1F)c1ccc(N2CCCC2)cc1` [Compound 11, (E)-3-(2-fluoro-3-(trifluoromethyl)phenyl)-1-(4-(pyrrolidin-1-yl)phenyl)prop-2-en-1-one], the results for the IC50 (at α-glucosidase; in series [2]) were 131 ± 3.02 µM and above 100 µM, respectively. For the same compound, the IC50 at 24 h in series [1] was above 100 µM.

Take `O=C(/C=C/c1ccccc1C(F)(F)F)c1ccc(N2CCCC2)cc1` [Compound 5, (E)-1-(4-(pyrrolidin-1-yl)phenyl)-3-(2-(trifluoromethyl)phenyl)prop-2-en-1-one]: the half-maximal inhibitory concentration (IC50) at α-glucosidase came out at 173 ± 3.45 µM; at α-amylase, 91.71 ± 0.28 µM; in series [2], 82.2 µM. For the same compound, the “toxic effect on healthy BEAS-2B cells” value in series [3] was “no toxic effects”. The compound further gave an IC50 at 24 h in series [1] of 97.7 µM.

As for `O=C(/C=C/c1ccccc1)c1ccccc1` [trans-chalcone], the IC50 on alpha-amylase was 96.4 µM.

The values are drawn from article PMC11904715, “Discovery of Novel Pyrrolidine-Based Chalcones as Dual Inhibitors of α-Amylase and α-Glucosidase: Synthesis, Molecular Docking, ADMET Profiles, and Pharmacological Screening” (ACS Omega, 2025).
